According to patent US7507742B2, “Spirocyclic derivatives” (Pfizer Inc., priority 2005, dated 2009):

Tests used:
PDE7A = target: T1, PDE7A (Homo sapiens, UniProt Q13946); test: PDE7A inhibition, [3H]-cAMP scintillation proximity assay; assay type: biochemical; conditions: IC50 converted to Ki by Cheng-Prussof equation; cell lysate with full length enzyme, ~25 nM cAMP
T1 construct: carried out using cell lysate containing full length PDE7A and PDE7B enzyme; made in house
Method: (§1) The ability of the compounds of formula (I) to inhibit PDE7 may be measured using the following assay protocol.
(§2) PDE7A and PDE7B enzymes catalyse the hydrolysis of 3′,5′-cyclic adenosine monophosphate (cAMP) to the 5′adenosine monophosphate, 5′AMP. In a multiwell plate; PDE enzyme, [^3H]-cAMP and the tested compounds, are incubated at room temperature. The incubation is terminated by addition of commercially available yttrium silicate scintillation proximity assay (SPA) beads containing zinc sulphate. The yttrium silicate beads preferentially bind linear nucleotides, thus the product of the enzyme reaction, [^3H]-5′AMP binds to the bead to produce a light signal, which is detected by a scintillation counter. The amount of signal produced directly correlates with the amount of product formed, and thus the activity of the enzyme. The maximum signal is obtained where enzyme and substrate are incubated alone. The background signal is measured from wells either containing no enzyme, or from wells containing a supra-maximal concentration of a known PDE7A/B inhibitor. Each purified batch of enzyme is quality controlled and its Km, Vmax and specific activity determined from kinetic studies before use in compound inhibition studies. The inhibition of the enzyme, by a test compound, is calculated relative to the maximum and background responses.
(§3) The optimisation of this assay has been carried out using cell lysate containing full length PDE7A and PDE7B enzyme. The concentration of the enzyme in this cell lysate sample is unknown, so the specific activity of the cell lysate is used as a measure to ensure that the same activity per well is used despite any batch-to-batch variation of concentration/activity.
(§4) PDE7 stock enzyme was prepared and kept at −20° C. in appropriately sized aliquots to reduce the number of freeze/thaw cycles. […] PDE7A is diluted to 1/8000 and PDE7B to 1/10000.
(§5) The final assay [cAMP] of ˜25 nM is required, so ˜50 nM [^3H]-cAMP was prepared.
(§6) Compound dilutions and “background” wells were made 30 stronger than required in the assay plate to allow for 1 μl compound to be diluted by 29 μl of other assay components (14 μl enzyme and 15 μl radioligand). Thus for a final assay concentration of 10 μM, the compound must be at 300 μM in the compound addition plate. 4 mM stocks of compound are supplied in 100% DMSO (or are made up @ 4 mM from powder submissions). This requires 1/13.33 dilution in DMSO to be made.
(§7) 1 μl test compound was transferred into a suitable multi-well assay plate immediately prior to reagent assay addition, 14 μl enzyme solution was then added to the assay plate, followed by 15 μl substrate solution (ie: final assay volume 30 μl, with a final screening compound concentration of […]). The plate was then sealed using a plate sealer and incubated at room temperature for 45 min on the plate shaker.
(§8) 30 μl Yttrium Silicate PDE4 SPA beads were then added, ensuring constant stirring of the beads to give even distribution in the assay plate. The plate was then sealed using a plate sealer and incubated at room temperature for 30 mins on the plate shaker. The beads were then allowed to settle for 30 mins, before spinning the plates for 1 min at 200 g.
(§9) The plates were then read on a suitable radioactive counter, for example NXT-TopCount™ (available from Perkin Elmer) using the relevant protocol (30 second read time per well).
(§10) The data was fitted to a sigmoid curve using a least squares algorithm.
(§11) The IC50 value was converted to a K^i value using the Cheng-Prussof equation: […]

PDE7B = target: T2, PDE7B (Homo sapiens, UniProt Q9NP56); test: PDE7B inhibition, [3H]-cAMP scintillation proximity assay; assay type: biochemical; conditions: IC50 converted to Ki by Cheng-Prussof equation; cell lysate with full length enzyme, ~25 nM cAMP
T2 construct: carried out using cell lysate containing full length PDE7A and PDE7B enzyme; made in house
T2 sequence (Q9NP56 whole entry, species assumed): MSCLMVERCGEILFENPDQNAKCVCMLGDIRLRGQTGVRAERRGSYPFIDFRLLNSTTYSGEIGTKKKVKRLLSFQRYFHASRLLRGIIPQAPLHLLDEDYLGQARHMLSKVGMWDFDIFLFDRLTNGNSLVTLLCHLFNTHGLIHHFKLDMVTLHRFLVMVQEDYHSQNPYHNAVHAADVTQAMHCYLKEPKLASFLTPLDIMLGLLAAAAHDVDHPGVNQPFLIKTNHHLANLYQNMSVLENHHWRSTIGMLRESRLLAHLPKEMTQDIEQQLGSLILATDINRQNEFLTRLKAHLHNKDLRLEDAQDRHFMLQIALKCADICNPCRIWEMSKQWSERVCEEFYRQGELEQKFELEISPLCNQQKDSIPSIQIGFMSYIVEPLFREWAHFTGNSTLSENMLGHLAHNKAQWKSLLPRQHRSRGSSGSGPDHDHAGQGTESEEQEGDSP
Method: as §1, §2, §3, §4, §5, §6, §7, §8, §9, §10, §11

[1] = Human hepatic metabolic stability in cryopreserved human hepatocytes; assay type: in vitro ADME; conditions: human, hepatocytes, pH 7.4
Method: (§12) The human hepatic metabolic stability of the compounds of Examples 1-7 of the present application were assessed in the model described below. The compound of Example 75 of WO 02/074754, 5′-carboxypropoxy-8′-chloro-spiro[cyclohexane-1-4′-(3′,4′-dihydro)quinazolin]-2′(1′H)-one (hereinafter “Compound A”), which is believed to represent the closest state of the art, was used as a comparison.
(§13) Hepatocytes are used as an in vitro system to monitor hepatic metabolism as these intact cells contain all the hepatic enzymes found in vivo, including phase I enzymes, such as cytochrome P450 oxidases (CYPs), aldehyde oxidases and monoamine oxidases (MAOs), and phase 11 enzymes, such as UDP-glucuronyltransferases and sulfotransferases. Cryopreserved human hepatocytes are prepared from 5 donors and suspended in Williams' E media. 4-(2-hydroxyethyl)-1-piperazineethanesulfonic acid (HEPES) is added to a final concentration of 50 mM and pH is adjusted to 7.4. Test substrates are dissolved in DMSO are added to the hepatocytes to give a substrate concentration of 1 μM, with a final DMSO concentration in the incubation below 0.1%. The experiments are performed in 96 or 384 well plates at 37° C., with a hepatocyte density of 0.5 million viable cells/mL. Sampling times of 10, 20, 30, 60, 90, and 120 minutes are used and analytical quantitation is by LC-MS/MS. The intrinsic clearance (apparent) is calculated using the formula: CLint, app=[−slope/0.5 M cells/mL]·1000 μL/mL=μL/min/M cells.
(§14) The human hepatic metabolic stability of the compounds of the present invention was tested according to the above protocol.

Rat IV pharmacokinetics = assay type: in vivo
Method: The pharmacokinetic properties of the compounds of Examples 1 and 2 were tested in the rat model described below. The compound of Example 75 of WO 02/074754, 5′-carboxypropoxy-8′-chloro-spiro[cyclohexane-1-4′-(3′,4′-dihydro)quinazolin]-2′(1′H)-one (hereinafter “Compound A”), which is believed to represent the closest state of the art, was used as a comparison.
The test compounds were administered to male rats (each rat receiving one compound), via the tail vein, at a dose of 1 mg/kg (0.08 mg/kg for the compound of Example 1). Blood samples were withdrawn from the rats via a surgically implanted jugular vein cannula at predetermined time-points after administration, and centrifuged to produce plasma. Plasma samples were analysed via a specific LC-MS/MS assay for the quantification of drug in plasma. The resulting plasma concentration-time curves were interrogated using a non-compartmental pharmacokinetic analysis in order to understand the disposition of each compound. The resulting output was subsequently used to estimate the likely human pharmacokinetic profile, as described below.
The mean, dose normalised, pharmacokinetic profiles of the compounds of Examples 1 and 2, as well as that of Compound A, following 1 mg/kg intravenous administration are shown in Table 6 below and in FIG. 1.

[2] = Fraction unbound in rat plasma; assay type: in vitro ADME; conditions: for fraction unbound: read-out: fup (fraction unbound in rat plasma)
[3] = Estimate of human pharmacokinetics by scaling rat unbound clearance; conditions: for Clu man: estimated human clearance scaled from rat: Clu rat*(BWman/BWrat)^0.75, 70 kg man, 0.25 kg rat; for half-life: human, T1/2=[ln(2)*Vd]/Cl, Vd in man assumed 0.2 L/kg, read-out: Estimated T1/2 (human half-life) (converted)
From the text: (§15) Based on the above pharmacokinetic data in the rat, the likely human pharmacokinetics of the compounds of Examples 1 and 2, and that of Compound A, can be estimated as follows. • Scaling the unbound rat plasma clearance (Clu rat) observed following intravenous administration to estimate an unbound human plasma clearance (Clu man) using the following relationship: Clu man=Clu rat*(BWman/BWrat)^0.75 where BWman & BWrat are the average body weights of man (70 kg) and rat (0.25 kg) respectively, and units of clearance are in ml/min. • Converting Clu man to estimate total blood clearance in man (Clman): Clman=[(Clu man)*fup]/B:P where fup is the free fraction of unbound drug in plasma and B:P is the blood to plasma ratio in human blood. • An estimate of human half-life is presented for each compound, derived using the relationship: T1/2=[In(2)*Vd]/Cl where T1/2 is the estimated human half-life in hours, Vd is the volume of distribution in man (assumed to be 0.2 L/kg, due to the physicochemistry of this series) and Cl is the human clearance.

[4] = Free fraction of unbound drug in plasma used for the human estimate; assay type: in vitro ADME; conditions: Table 7, used to convert Clu man to Clman; for fraction unbound: human, plasma, read-out: fup (free fraction of unbound drug in plasma)
From the text: as §15

[5] = Blood to plasma ratio in human blood; assay type: in vitro ADME; conditions: for blood plasma ratio: human, read-out: B:P (blood to plasma ratio)
From the text: as §15

Human Hepatocytes = test: Human hepatic metabolic stability in cryopreserved human hepatocytes; assay type: in vitro ADME; conditions: intrinsic clearance (apparent); 1 μM substrate, 0.5 million viable cells/mL, 37° C., 5 donors
Method: as §12, §13, §14

[6] = male rats, intravenous 1 mg/kg (0.08 mg/kg for Example 1)

T1 sequence (Q13946 whole entry, species assumed): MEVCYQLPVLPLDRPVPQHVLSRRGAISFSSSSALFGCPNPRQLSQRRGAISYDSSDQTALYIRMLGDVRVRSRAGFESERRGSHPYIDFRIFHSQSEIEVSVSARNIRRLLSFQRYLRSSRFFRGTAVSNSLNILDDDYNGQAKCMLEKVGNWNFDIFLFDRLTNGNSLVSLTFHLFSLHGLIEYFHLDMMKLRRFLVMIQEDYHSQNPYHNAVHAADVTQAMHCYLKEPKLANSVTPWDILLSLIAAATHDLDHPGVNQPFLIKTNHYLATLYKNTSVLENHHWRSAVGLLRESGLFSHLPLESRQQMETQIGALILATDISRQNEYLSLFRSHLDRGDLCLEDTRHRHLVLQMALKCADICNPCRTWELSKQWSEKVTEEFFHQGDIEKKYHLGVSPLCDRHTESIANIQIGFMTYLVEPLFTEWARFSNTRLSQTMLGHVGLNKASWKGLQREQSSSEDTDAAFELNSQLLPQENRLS

## O=C1Nc2c(F)ccc(OCC3(C(=O)O)CCC3)c2C2(CCCCC2)N1 [Example 5, 1-[(8′-fluoro-2′-oxo-2′,3′-dihydro-1′H-spiro[cyclohexane-1,4′-quinazolin]-5′-yl)oxymethyl]cyclobutanecarboxylic acid]
PDE7A
  Ki: 276 nM
PDE7B
  Ki: 1420 nM
[1]
  hepatocyte CLint at 1 μM: < 5 µL/min/1e6 cells

## N#Cc1ccc(O[C@H]2C[C@H](C(=O)O)C2)c2c1NC(=O)NC21CCCCC1 [Example 4, trans-3-[(8′-cyano-2′-oxo-2′,3′-dihydro-1′H-spiro[cyclohexane-1,4′-quinazolin]-5′-yl)oxy]cyclobutanecarboxylic acid]
PDE7A
  Ki: 11.6 nM
PDE7B
  Ki: 144 nM
[1]
  hepatocyte CLint at 1 μM: < 5 µL/min/1e6 cells

## O=C1Nc2c(Cl)ccc(O[C@H]3C[C@H](C(=O)O)C3)c2C2(CCCCCC2)N1 [Example 6, Trans-3-[(8′-chloro-2′-oxo-2′,3′-dihydro-1′H-spiro[cycloheptyl-1,4′-quinazolin]-5′-yl)oxy]cyclobutanecarboxylic acid]
PDE7B
  Ki: 17.6 nM
[1]
  hepatocyte CLint at 1 μM: < 5 µL/min/1e6 cells

## O=C1Nc2c(Cl)ccc(O[C@H]3C[C@@H](C(=O)O)C3)c2C2(CCCCC2)N1 [Example 1, Cis-3-[(8′-chloro-2′-oxo-2′,3′-dihydro-1′H-spiro[cyclohexane-1,4′-quinazolin]-5′-yl)oxy]cyclobutanecarboxylic acid]
PDE7A
  Ki: 1.9 nM
PDE7B
  Ki: 4.6 nM
[1]
  hepatocyte CLint at 1 μM: < 5 µL/min/1e6 cells
Rat IV pharmacokinetics; male, rat, in vivo, iv
  Clu (unbound rat plasma clearance): 27 mL/min/kg
  Clu rat: 27 mL/min/kg
  clearance: 1.9 mL/min/kg
  half-life: 4 h
Rat IV pharmacokinetics; rat, in vivo, iv
  Vd (volume of distribution in rat): 0.6 L/kg
[2]
  fraction unbound: 0.07
[3]
  Clu man: 0.8 mL/min/kg
  half-life: 3 h
[4]
  fraction unbound: 0.07
[5]
  blood plasma ratio: 0.6

## O=C1Nc2c(Cl)ccc(O[C@H]3C[C@H](C(=O)O)C3)c2C2(CCCC2)N1 [Example 7, Trans-3-[(8′-chloro-2′-oxo-2′,3′-dihydro-1′H-spiro[cyclopentyl-1,4′-quinazolin]-5′-yl)oxy]cyclobutanecarboxylic acid]
PDE7A
  Ki: 19.8 nM
PDE7B
  Ki: 140 nM
[1]
  hepatocyte CLint at 1 μM: < 5 µL/min/1e6 cells

## O=C1Nc2c(Cl)ccc(O[C@H]3C[C@H](C(=O)O)C3)c2C2(CCCCC2)N1 [Example 2]
PDE7A
  Ki: 3.1 nM
PDE7B
  Ki: 13.4 nM
[1]
  hepatocyte CLint at 1 μM: < 5 µL/min/1e6 cells
Rat IV pharmacokinetics; male, rat, in vivo, iv
  Clu (unbound rat plasma clearance): 70 mL/min/kg
  Clu rat: 70 mL/min/kg
  clearance: 0.7 mL/min/kg
  half-life: 11 h
Rat IV pharmacokinetics; rat, in vivo, iv
  Vd (volume of distribution in rat): 0.7 L/kg
[2]
  fraction unbound: 0.1
[3]
  Clu man: 0.2 mL/min/kg
  half-life: 10 h
[4]
  fraction unbound: 0.01
[5]
  blood plasma ratio: 0.7

## O=C1Nc2c(F)ccc(OCC3CC(C(=O)O)C3)c2C2(CCCCC2)N1 (centres unmarked) [Example 3, 3-[(8′-fluoro-2′-oxo-2′,3′-dihydro-1′H-spiro[cyclohexane-1,4′-quinazolin]-5′-yl)oxymethyl]cyclobutanecarboxylic acid]
PDE7A
  Ki: 15.6 nM
PDE7B
  Ki: 108 nM
[1]
  hepatocyte CLint at 1 μM: < 5 µL/min/1e6 cells

## O=C(O)CCCOc1ccc(Cl)c2c1C1(CCCCC1)NC(=O)N2 [Compound A, 5′-carboxypropoxy-8′-chloro-spiro[cyclohexane-1-4′-(3′,4′-dihydro)quinazolin]-2′(1′H)-one, reference compound]
Human Hepatocytes
  Human Hepatocytes CLint: 25 μL/min/M cells
Rat IV pharmacokinetics; Clu = Cl/fup, male rats, intravenous
  Clu (unbound rat plasma clearance): 156 mL/min/kg
Rat IV pharmacokinetics; [6]
  T1/2 (half life): <1 h
  Vd (volume of distribution in rat): 0.4 L/kg
Rat IV pharmacokinetics; male rats, intravenous 1 mg/kg (0.08 mg/kg for Example 1), mean, dose normalised
  Cl (rat clearance): 7 mL/min/kg
Rat IV pharmacokinetics; unbound rat plasma clearance after intravenous administration, as repeated in Table 7
  Clu rat: 156 mL/min/kg
[2]
  fup (fraction unbound in rat plasma): 0.045
[3]
  Clu man: 1.9 mL/min/kg
[4]
  fup (free fraction of unbound drug in plasma): 0.03
[5]
  B:P (blood to plasma ratio): 0.6
